Data on nine compounds can be found in patent publication US10745360B2, “Quinoxaline compounds, method for preparing the same and use thereof” (Development Center for Biotechnology, priority 2014, dated 2020).

pIC50: −log10 of the molar value. Read-outs that look alike come from different tables or passages of the source.

For one test, the target named is T1, B-Raf kinase (Homo sapiens, UniProt P15056).
T1 construct: purchased Upstate Biotechnology
Nature of the test: B-Raf kinase assay ([33P] incorporation into MEK1 K97R). The test is classed as biochemical. The note with it: recombinant B-Raf, 8 μM ATP, 30 min, 30° C.; read-out: IC50 ranking against B-Raf kinase. On the procedure:
Inhibition of kinase activity by a test compound disclosed herein was estimated by quantifying the amount of [^33P] incorporation of a substrate in the presence of the test compound. Standard assay conditions were 5 ng of recombinant B-Raf kinase (Upstate Biotechnology) with 500 ng MEK1(Map-erk kinase; K97R) in the assay buffer (8 μM ATP, 0.5 μCi [^33P]ATP (specific activity 3000 Ci/mmol, PerkinElmer), 50 mM Tris/HCl (pH 7.5), and 1 mM EGTA, 1 mM Na3VO4, 1% 2-mercaptoethanol, 0.1% Brij 35, and 0.2 mg/ml BSA) in a final volume of 25 μL. Reactions were incubated at 30° C. for 30 min and stopped by adding 3% phosphoric acid, harvested onto a 96-well GF/B UniFilter (PerkinElmer) using a unifilter harvester (PerkinElmer), and counted with a TopCount microplate scintillation counter (PerkinElmer). The IC50 values of inhibitors were determined after carrying out assays at 3-fold serially diluted concentrations of each compound in duplication. The results were analyzed using linear regression software (GraphPad Prism 4; GraphPad Software Inc.).

In the next test the target is T2, B-Raf^V600E kinase (Homo sapiens, UniProt P15056, V600E).
T2 construct: purchased Upstate Biotechnology
Nature of the test: B-Raf V600E kinase assay ([33P] incorporation into MEK1 K97R). The test is classed as biochemical. As to conditions: recombinant B-Raf^V600E, 8 μM ATP, 30 min, 30° C.; read-out: IC50 ranking against B-Raf^V600E kinase. How it is done:
(§1) Inhibition of kinase activity by a test compound disclosed herein was estimated by quantifying the amount of [^33P] incorporation of a substrate in the presence of the test compound. Standard assay conditions were 5 ng of recombinant B-Raf^V600E kinase (Upstate Biotechnology) with 500 ng MEK1 (K97R) in assay buffer (8 μM ATP, 0.5 μCi [^33P]ATP (specific activity 3000 Ci/mmol, PerkinElmer), 50 mM Tris/HCl (pH 7.5), and 1 mM EGTA, 1 mM Na3VO4, 1% 2-mercaptoethanol, 0.1% Brij 35, and 0.2 mg/ml BSA), and the test compound (diluted with 4% DMSO) or DMSO alone (as a control) in a final volume of 25 μL. Reactions were incubated at 30° C. for 30 min and stopped by adding 3% phosphoric acid, harvested onto a 96-well GF/B UniFilter (PerkinElmer) using a unifilter harvester (PerkinElmer), and counted with a TopCount microplate scintillation counter (PerkinElmer). The IC50 values of inhibitors were determined after carrying out assays at 3-fold serially diluted concentrations of each compound in duplication. The results were analyzed using linear regression software (GraphPad Prism 4; GraphPad Software Inc.).

The target in another test is T3, C-Raf kinase (Homo sapiens, UniProt P04049).
T3 construct: purchased Upstate Biotechnology
The experiment in a line: C-Raf kinase assay ([33P] incorporation into MEK1 K97R). It counts as biochemical. The note with it: recombinant C-Raf, 8 μM ATP, 30 min, 30° C.; read-out: IC50 ranking against C-Raf kinase. How it is done: as §1, with “were 2” for “were 5”, “recombinant C-Raf” for “recombinant B-Raf^V600E”, “ng MEK1(K97R)” for “ng MEK1 (K97R)”

Test [1] relates to B-Raf^V600E mutant A375 melanoma cell. The experiment in a line: Cell proliferation assay (CELLTITER 96), A375. It counts as cell-based. As to conditions: Homo sapiens, A-375; A375, 72 hours; read-out: Cytotoxicity (IC50 Ranking) A375 (B-Raf^V600E). How it is done:
(§2) Inhibition of cell growth by compounds was measured using CELLTITER 96® assay. The cytotoxicity of compounds was evaluated in B-Raf^V600E mutant A375 melanoma cell, B-Raf^V600E mutant COLO205 colon cancer cell, and SK-MEL-2 melanoma cell with wild type B-Raf (B-Raf^wt) and NRASQ^Q61R mutation. A375 and COLO205 cell line were cultured in DMEM containing 10% FCS and incubated at 37° C. in 5% CO2 atmosphere. SK-MEL-2 cell line was cultured in MEM containing 10% FCS and incubated at 37° C. in 5% CO2 atmosphere. A375, COLO205 and SK-MEL-2 cell were seeded into 96-well plates at 2000, 2000, and 4000 cells/well, respectively, and allowed to adhere for overnight. Then, these seeded cells were treated with increasing concentrations of the test compounds and incubated for another 72 hours. At the end of the incubation, CELLTITER 96® Aqueous One Solution Reagent (Promega) was added and incubated for 4 hours. Cell viability was determined by measuring absorbance at 490 nm using EMAX® microplate reader (Molecular Devices).
(§3) The 50% inhibitory concentration (IC50) value was calculated by plotting the percentage of growth inhibition against the concentration of compound, using GraphPad Prism5 software for curve fitting.

Test [2] concerns B-Raf^V600E mutant COLO205 colon cancer cell. Nature of the test: Cell proliferation assay (CELLTITER 96), COLO205. It counts as cell-based. As to conditions: Homo sapiens, COLO 205; COLO205, 72 hours; read-out: Cytotoxicity (IC50 Ranking) COLO205 (B-Raf^V600E). On the procedure: as §2, §3
For test [3], the system named is SK-MEL-2 melanoma cell with wild type B-Raf (B-Raf^wt) and NRAS^Q61R mutation. The experiment in a line: Cell proliferation assay (CELLTITER 96), SK-MEL-2. The test is classed as cell-based. The note with it: Homo sapiens, SK-MEL-2, 72 hours, read-out: Cytotoxicity (IC50 Ranking) SK-MEL-2 (NRAS^Q61R, B-Raf^wt). How it is done:
as §2, §3

T1 sequence (P15056 whole entry): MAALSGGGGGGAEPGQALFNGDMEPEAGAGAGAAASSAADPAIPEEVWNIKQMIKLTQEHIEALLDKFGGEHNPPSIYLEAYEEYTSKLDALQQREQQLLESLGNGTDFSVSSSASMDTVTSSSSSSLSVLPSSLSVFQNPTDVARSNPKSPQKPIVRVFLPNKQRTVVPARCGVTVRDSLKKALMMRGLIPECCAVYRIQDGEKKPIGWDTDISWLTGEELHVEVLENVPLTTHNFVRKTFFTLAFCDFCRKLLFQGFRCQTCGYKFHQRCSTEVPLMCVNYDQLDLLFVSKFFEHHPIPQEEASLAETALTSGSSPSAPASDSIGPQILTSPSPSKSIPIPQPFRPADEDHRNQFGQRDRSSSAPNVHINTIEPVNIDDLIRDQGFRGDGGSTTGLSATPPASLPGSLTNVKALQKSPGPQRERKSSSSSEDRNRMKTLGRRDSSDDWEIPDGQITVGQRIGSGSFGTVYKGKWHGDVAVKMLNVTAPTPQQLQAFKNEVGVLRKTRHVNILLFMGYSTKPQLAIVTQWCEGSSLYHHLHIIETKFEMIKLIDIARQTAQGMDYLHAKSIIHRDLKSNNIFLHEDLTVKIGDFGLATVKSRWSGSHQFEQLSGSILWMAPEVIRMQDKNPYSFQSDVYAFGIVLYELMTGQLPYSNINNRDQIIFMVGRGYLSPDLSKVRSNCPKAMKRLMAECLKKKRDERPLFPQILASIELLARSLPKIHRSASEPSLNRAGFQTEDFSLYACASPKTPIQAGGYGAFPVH
T2 sequence (P15056 whole entry V600E): as the sequence (P15056 whole entry) above, with V600E counted along it
T3 sequence (P04049 whole entry): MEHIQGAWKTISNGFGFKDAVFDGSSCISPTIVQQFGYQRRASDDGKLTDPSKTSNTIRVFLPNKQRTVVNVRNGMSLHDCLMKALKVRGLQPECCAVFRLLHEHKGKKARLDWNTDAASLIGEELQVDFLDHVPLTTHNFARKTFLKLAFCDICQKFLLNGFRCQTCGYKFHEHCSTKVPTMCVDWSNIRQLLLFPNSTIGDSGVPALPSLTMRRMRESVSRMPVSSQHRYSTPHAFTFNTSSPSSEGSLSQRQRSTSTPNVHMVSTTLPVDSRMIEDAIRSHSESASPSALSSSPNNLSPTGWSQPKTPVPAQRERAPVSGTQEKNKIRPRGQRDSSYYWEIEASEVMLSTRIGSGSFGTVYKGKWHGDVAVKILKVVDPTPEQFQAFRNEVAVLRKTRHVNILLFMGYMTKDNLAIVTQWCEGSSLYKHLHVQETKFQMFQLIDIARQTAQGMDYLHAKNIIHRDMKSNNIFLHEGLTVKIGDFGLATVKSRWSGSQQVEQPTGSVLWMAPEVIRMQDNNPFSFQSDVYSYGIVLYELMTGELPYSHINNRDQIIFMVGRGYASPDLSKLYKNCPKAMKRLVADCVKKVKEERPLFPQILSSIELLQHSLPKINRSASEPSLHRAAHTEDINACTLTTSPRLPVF

One may read the pIC50 as the IC50 on a negative log10 scale, so that one unit is a factor of ten. On to `CCCS(=O)(=O)Nc1ccc(F)c(Nc2ccc3ncc(NC)nc3c2C#N)c1F` [compound 20, N-(3-(5-cyano-3-(methylamino)quinoxalin-6-ylamino)-2,4-difluorophenyl)propane-1-sulfonamide], for which the pIC50 is > 6.52 at B-Raf kinase; > 6.52 at B-Raf^V600E kinase; > 6.52 on C-Raf kinase; > 6.52 in test [1]; > 6.52 in test [2]; < 5.00 in test [3] (given as bound).
As for `CCCS(=O)(=O)Nc1ccc(F)c(Nc2ccc3ncc(OCCN4CCOCC4)nc3c2C#N)c1F` [compound 16, N1-(3-{[5-cyano-3-(2-morpholinoethoxy)-6-quinoxalinyl]amino)-2,4-difluorophenyl)-1-propanesulfonamide], the negative logarithm of the IC50 (pIC50) at B-Raf kinase was > 6.52; on B-Raf^V600E kinase it was > 6.52; at C-Raf kinase, > 6.52; in test [1], > 6.52; in test [2] it was > 6.52; in test [3] (given as bound) it was < 5.00.
With `CCCS(=O)(=O)Nc1ccc(F)c(Nc2ccc3ncc(N(C)C)nc3c2C#N)c1` [compound 28, N-(3-(5-cyano-3-(dimethylamino)quinoxalin-6-ylamino)-4-fluorophenyl)propane-1-sulfonamide], the pIC50 is 6.00 to 6.52 at B-Raf kinase; 6.00 to 6.52 on B-Raf^V600E kinase; > 6.52 at C-Raf kinase; 6.00 to 6.52 in test [1]; > 6.52 in test [2]; < 5.00 in test [3] (given as bound).
Consider `N#Cc1c(Nc2c(F)ccc(NS(=O)(=O)CCCF)c2F)ccc2ncc(N3CCOCC3)nc12` [compound 33, N-(3-(5-cyano-3-morpholinoquinoxalin-6-ylamino)-2,4-difluorophenyl)-3-fluoropropane-1-sulfonamide], for which the pIC50 on B-Raf kinase is > 6.52; on B-Raf^V600E kinase it was > 6.52; at C-Raf kinase it was > 6.52; in test [1] it was > 6.52; in test [2], > 6.52; in test [3] (given as class symbol), 5.00 to 6.00.
With `CCCS(=O)(=O)Nc1ccc(F)c(Nc2cc3nc(OC)cnc3cc2C)c1F` [compound 32, N-(2,4-difluoro-3-(3-methoxy-7-methylquinoxalin-6-ylamino)phenyl)propane-1-sulfonamide], on B-Raf kinase, the pIC50 is 5.00 to 6.00.
Take `CCCS(=O)(=O)Nc1ccc(F)c(Nc2ccc3ncc(OCCN(C)C)nc3c2[N+](=O)[O-])c1F` [compound 9, N1-[3-({3-[2-(dimethylamino)ethoxy]-5-nitro-6-quinoxalinyl}amino)-2,4-difluorophenyl]-1-propanesulfonamide]: the pIC50 was > 6.52 on B-Raf kinase; > 6.52 on B-Raf^V600E kinase; > 6.52 at C-Raf kinase; > 6.52 in test [1]; > 6.52 in test [2]; < 5.00 in test [3] (given as bound).
Turning to `CCCS(=O)(=O)Nc1ccc(F)c(Nc2ccc3ncc(OC)nc3c2C#N)c1F` [compound 10, N1-{3-[(5-cyano-3-methoxy-6-quinoxalinyl)amino]-2,4-difluorophenyl}-1-propanesulfonamide], the pIC50 on B-Raf kinase was > 6.52; on B-Raf^V600E kinase it was > 6.52; at C-Raf kinase, > 6.52; in test [1] it was > 6.52; in test [2], > 6.52; in test [3] (given as bound), < 5.00.
Consider `CCCS(=O)(=O)Nc1cc(Nc2ccc3ncc(OC)nc3c2C#N)ccc1C` [compound 45, N-(5-(5-cyano-3-methoxyquinoxalin-6-ylamino)-2-methylphenyl)propane-1-sulfonamide], for which the pIC50 on B-Raf kinase, at B-Raf^V600E kinase and on C-Raf kinase was 5.00 to 6.00 each time.
For `CCCS(=O)(=O)Nc1ccc(F)c(Nc2ccc3ncc(OC)nc3c2N)c1F` [compound 3, N1-{3-[(5-amino-3-methoxy-6-quinoxalinyl)amino]-2,4-difluorophenyl}-1-propanesulfonamide], the pIC50 on B-Raf kinase, on B-Raf^V600E kinase and on C-Raf kinase was 6.00 to 6.52 each time.
